Experimental data reported in US11925655B2, “FAP-activated therapeutic agents, and uses related thereto” (Bach Biosciences, LLC, priority 2014, dated 2024).
pEC50: −log10 of the molar value. Like-named read-outs stand apart in the source and are kept apart here. One block for each compound: values may come before it.

Experiments:
[1] = tested on: COc1cccc2c1C(=O)c1c(O)c3c(c(O)c1C2=O)C[C@@](O)(C(=O)CO)C[C@@H]3OC1CC(NC(=O)[C@@H]2CCCN2C(=O)[C@@H](C)NC(=O)c2ccncc2)C(O)C(C)O1; type: biochemical; details: other: 1.34×10^−8 M FAP, 37° C., pH 7.5
Method: Michaelis-Menten enzyme kinetics for FAP were measured using a SpectraMax M2e microplate reader (Molecular Devices, Sunnyvale, CA, USA). The assays were performed in FAP buffer (50 mM Tris, 140 mM NaCl, pH 7.5) at 25° C., and the fluorescence continuously monitored at excitation and emission wavelengths of 380 and 460 nm, respectively. Kinetic constants (kcat and Km) were determined using GP-AMC (Bachem, Torrance, CA, USA), Ac-(D)-AP-AFC (MP Biomedicals, Solon, OH, USA) and test article concentrations equivalent to 0.1-5 times their respective Km values, and with 5-10 nM enzyme. All assays were performed in triplicate, and the results were calculated with a nonlinear regression analysis, relying on a Michaelis-Menten curve fit using GraphPad software.
3099DOX at various concentrations ranging from 8.5×10^−6 M to 6.9×10^−4 M was incubated with 1.34×10^−8 M FAP or PREP at 37° C., and released doxorubicin measured.

[2] = tested on: COc1cccc2c1C(=O)c1c(O)c3c(c(O)c1C2=O)C[C@@](O)(C(=O)CO)C[C@@H]3OC1CC(NC(=O)[C@@H]2CC(F)(F)CN2C(=O)CNC(=O)c2ccnc3ccccc23)C(O)C(C)O1; experiment: FAP digest of 5057DOX (kinetics); type: biochemical
[3] = tested on: HEK-Mock cells; experiment: CellTiter-Blue cell viability assay with HEK-Mock cells; type: cell-based; details: Homo sapiens, 72 h
[4] = tested on: HEK-mFAP cells; experiment: CellTiter-Blue cell viability assay with HEK-mFAP cells; type: cell-based, human; details: Homo sapiens, 72 h
[5] = tested on: MCF-7; experiment: CellTiter-Blue cell viability assay: MCF-7; type: cell-based; details: Homo sapiens, MCF7, 5057DOX assay 5, 72 hour incubation
[6] = tested on: OVCAR-3; experiment: CellTiter-Blue cell viability assay: OVCAR-3; type: cell-based; details: Homo sapiens, 5057DOX assay 5, 72 hour incubation
[7] = tested on: SK-OV-3; experiment: CellTiter-Blue cell viability assay: SK-OV-3; type: cell-based; details: Homo sapiens, 5057DOX assay 5, 72 hour incubation
[8] = target: T1, FAP (Homo sapiens, UniProt Q12884); experiment: FAP digest of 5057DOX (kinetics); type: biochemical
T1 sequence (Q12884 1-760): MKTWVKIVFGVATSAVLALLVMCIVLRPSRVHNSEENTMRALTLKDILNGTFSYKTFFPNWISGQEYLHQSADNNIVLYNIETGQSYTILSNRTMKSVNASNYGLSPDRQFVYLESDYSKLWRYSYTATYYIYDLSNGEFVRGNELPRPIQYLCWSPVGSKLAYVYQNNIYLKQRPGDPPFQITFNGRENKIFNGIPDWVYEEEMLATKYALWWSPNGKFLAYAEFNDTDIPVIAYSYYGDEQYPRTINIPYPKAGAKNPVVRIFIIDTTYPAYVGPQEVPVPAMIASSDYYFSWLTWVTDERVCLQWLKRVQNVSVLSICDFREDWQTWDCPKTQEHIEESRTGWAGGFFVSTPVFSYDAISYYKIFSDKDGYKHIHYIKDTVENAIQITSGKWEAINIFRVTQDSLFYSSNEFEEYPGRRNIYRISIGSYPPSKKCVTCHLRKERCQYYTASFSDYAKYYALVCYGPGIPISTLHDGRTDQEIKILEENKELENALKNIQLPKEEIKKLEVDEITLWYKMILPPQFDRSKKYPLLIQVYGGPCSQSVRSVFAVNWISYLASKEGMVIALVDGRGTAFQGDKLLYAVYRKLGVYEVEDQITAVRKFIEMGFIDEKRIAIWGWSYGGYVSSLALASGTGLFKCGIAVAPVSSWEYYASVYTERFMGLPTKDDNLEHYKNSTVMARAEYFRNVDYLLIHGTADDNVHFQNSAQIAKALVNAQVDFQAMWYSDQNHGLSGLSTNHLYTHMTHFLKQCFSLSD

[9] = target: T1, FAP; experiment: Selectivity of FAP over PREP (5057DOX activation by recombinant enzyme); type: biochemical; details: 240 nM 5057DOX, 12, 24 or 48 nM recombinant enzyme, 37° C., FIG. 12
Method: Recombinant enzyme (FAP or PREP) was combined, at reaction concentration of 12 nM, 24 nM, or 48 nM, with 240 nM 5057DOX in FAP buffer (50 mM Tris-HCl, pH 7.4, 140 mM NaCl) and incubated at 37° C. Reactions were stopped at 0, 10, 20, or 30 minutes by addition of equal volume of 10 μM Val-boroPro (FAP inhibitor). Doxorubicin was measured by liquid chromatography/mass spectroscopy (LCMS).

[10] = other: 5057DOX assay 6, [FAP] 4.00 × 10^−9M
[11] = other: 5057DOX assay 7, [FAP] 1 nM
[12] = 5057DOX assay 2, 72 hour incubation, read-out: EC50 (prodrug + 25 nM PREP)
[13] = 5057DOX assay 2, 72 hour incubation, read-out: EC50 (prodrug + 100 uM 2054-9)
[14] = 5057DOX assay 2, 72 hour incubation, read-out: EC50 (prodrug alone)
[15] = 5057DOX assay 3, 72 hour incubation, read-out: EC50 (prodrug + 100 uM 2054-9)
[16] = 5057DOX assay 3, 72 hour incubation, read-out: EC50 (prodrug + 100 uM 3099-15)
[17] = 5057DOX assay 3, 72 hour incubation, read-out: EC50 (prodrug alone)
[18] = 5057DOX assay 4, 72 hour incubation, read-out: EC50 (prodrug + 100 uM 5057)
[19] = 5057DOX assay 4, 72 hour incubation, read-out: EC50 (prodrug alone)
[20] = read-out: EC50 (prodrug + 25 nM FAP)
[21] = read-out: EC50 (prodrug + 100 uM 5057)

Compound: FAP (Homo sapiens)
Km [1]: 11.2 µM
Vmax [1]: 5.877e-09 M/s
kcat [1]: 0.44 s⁻¹
kcat/Km [1]: 39171 M⁻¹ s⁻¹
Km [2, 10]: Km 1.11 × 10^−5M M
Vmax [2, 10]: Vmax 5.19 × 10^−9M/sec M/sec
kcat/Km [2, 10]: kcat/Km 1.17 × 10^5M^−1sec^−1 M^−1sec^−1
Km [2, 11]: Km 4.85 × 10^−6M M
kcat [2, 11]: Kcat 0.98 sec^−1 sec^−1
kcat/Km [2, 11]: Kcat/Km 2.00 × 10^5M^−1 sec^−1 M^−1 sec^−1

pEC50 [5, 20]: 4.64
pEC50 [5, 21]: < 4.00
pEC50 ([5]; read-out: EC50 (prodrug alone)): < 4.00
pEC50 [6, 20]: 6.00
pEC50 [6, 21]: < 4.00
pEC50 ([6]; read-out: EC50 (prodrug alone)): < 4.00
pEC50 [7, 20]: 6.85
pEC50 [7, 21]: 4.25
pEC50 ([7]; read-out: EC50 (prodrug alone)): 6.08
Kcat(Vmax/[E]) ([8]; 5057DOX assay 6, [FAP] 4.00 × 10^−9M): Kcat(Vmax/[E]) 1.30 sec^−1
Vmax ([8]; 5057DOX assay 7, [FAP] 1 nM, Dox standards, Daunorubicin internal standard): Vmax 9.80 × 10^−10M/sec
Compound: COc1cccc2c1C(=O)c1c(O)c3c(c(O)c1C2=O)C[C@@](O)(C(=O)CO)C[C@@H]3O[C@H]1C[C@H](NC(=O)[C@@H]2CC(F)(F)CN2C(=O)CNC(=O)c2ccnc3ccccc23)[C@H](O)[C@H](C)O1 [Compound 5057DOX]
pEC50 ([3]; 5057DOX assay 1, 72 hour incubation, read-out: EC50 (prodrug + 25 nM FAP)): 7.44
pEC50 ([3]; 5057DOX assay 1, 72 hour incubation, read-out: EC50 (prodrug + 25 nM PREP)): 6.60
pEC50 ([3]; 5057DOX assay 1, 72 hour incubation, read-out: EC50 (prodrug alone)): 6.32
pEC50 ([3]; 5057DOX assay 2, 72 hour incubation, read-out: EC50 (prodrug + 25 nM FAP)): 7.59
pEC50 [3, 12]: 6.66
pEC50 [3, 13]: 5.01
pEC50 [3, 14]: 6.34
pEC50 [3, 15]: < 5.00
pEC50 [3, 16]: < 4.00
pEC50 [3, 17]: 5.64
pEC50 [3, 18]: < 4.00
pEC50 [3, 19]: 5.96
pEC50 [4, 12]: 6.96
pEC50 [4, 13]: 6.13
pEC50 ([4]; 5057DOX assay 2, 72 hour incubation, read-out: EC50 (prodrug + 100 uM 3099-15)): < 5.00
pEC50 [4, 14]: 6.85
pEC50 [4, 15]: 5.28
pEC50 [4, 16]: < 4.00
pEC50 [4, 17]: 6.22
pEC50 [4, 18]: < 4.00
pEC50 [4, 19]: 6.11
pEC50 ([4]; 5057DOX assay 8, 72 hour incubation, read-out: EC50 (prodrug + 100 uM 5057)): < 4.00
pEC50 ([4]; 5057DOX assay 8, 72 hour incubation, read-out: EC50 (prodrug alone)): 5.96
activation by FAP as compared to PREP [9]: selectively activated by FAP as compared to PREP
